According to US9452159B2, “6-aminopyridine-3-ol derivatives or pharmaceutically acceptable salts thereof, and pharmaceutical composition containing same as active ingredients for preventing or treating diseases caused by angiogenesis” (Research Cooperation Foundation of Yeungnam University, priority 2011, dated 2016):
Read-outs that look alike come from different tables or passages of the source.

System: chorioallantoic membrane (CAM)
Experiment: Chorioallantoic membrane (CAM) assay, VEGF-derived angiogenesis
Format: in vivo, chick
Details: for angiogenesis inhibiting effects: VEGF-treated CAM, summary of Table 1, 6a compared with SU4312, batimastat and α-tocopherol
Protocol: To examine angiogenesis inhibiting effects in vivo, CAM assay was performed (Nguyen Metal., Microvascular Res., 47, pp 31-40, 1994). Hen's fertile eggs were incubated at a temperature of 37° C. and in relative humidity 55%, and on the 10th day after the incubation, an air sac site was punched by using a hypodermic needle (Greencross Medical Science Corp, Korea) to form a first hole, and then, a planar site of the fertile egg where a window was to be formed was punched to form a second hole. Air was removed through the first pore of the air sac site to allow the chorioallantoic membrane (CAM) to be separated from the shell of the fertile egg, and this site was cut by using a grinding wheel (Multipro 395JA, Dremel, Mexico) to form a window. […] Through the window, the filter disc was placed on blood vessels, which were then treated with the compounds each dissolved in dimethylsulfoxide (DMSO) and diluted with phosphate buffer solution (PBS) at various concentrations. 3 days after the treatment with the compounds, the CAM site with the filter disc placed thereon was separated, and then washed with a phosphate buffer solution, and an image thereof was obtained by using a stereomicroscope (Stemi SV6 stereomicroscope, Carl Zeiss, Germany) and image-Pro Plus software (Media Cybernetics; Silver Spring, Md., U.S.A.) to count the number of blood vessel branches, and the obtained results were assayed.

[1] = Gallus gallus, 72 h, VEGF (50 ng/CAM) + 3.0 ng/CAM, 1.3 μM, 3 days after treatment, read-out: Inhibition ratio
[2] = VEGF (50 ng/CAM) + 3.0 ng/CAM, 1.3 μM, 3 days after treatment
[3] = VEGF (50 ng/CAM) + 3.0 ng/CAM, 0.7 μM, 3 days after treatment
[4] = VEGF (50 ng/CAM) + 100 ng/CAM, 23 μM, 3 days after treatment
[5] = Gallus gallus, 72 h, VEGF (50 ng/CAM) + 3.0 ng/CAM, 1.0 μM, 3 days after treatment, read-out: Inhibition ratio
[6] = VEGF (50 ng/CAM) + 3.0 ng/CAM, 1.0 μM, 3 days after treatment
[7] = Gallus gallus, 72 h, VEGF (50 ng/CAM) + 2.0 ng/CAM, 1.0 μM, 3 days after treatment, read-out: Inhibition ratio
[8] = VEGF (50 ng/CAM) + 2.0 ng/CAM, 1.0 μM, 3 days after treatment
[9] = VEGF (50 ng/CAM) + 1.0 μg/CAM, 378 μM, 3 days after treatment

Cc1nc(Nc2ccccc2)c(C)c(C)c1O [Compound 6g, 2,4,5-trimethyl-6-(phenylamino)pyridin-3-ol]
inhibition in vivo at 1.3 µM [1]: 69.4 ± 5.7% | Number of blood vessel branches/main blood vessel [2]: 23.3 ± 1.1^8 | angiogenesis inhibiting effects: excellent angiogenesis inhibiting effects

Cc1c(C)c2c(c(C)c1O)CC[C@@](C)(CCC[C@H](C)CCC[C@H](C)CCCC(C)C)O2 [α-Tocopherol, reference compound]
Inhibition ratio [3]: 45.1 ± 9.3^8 | Number of blood vessel branches/main blood vessel [3]: 32.3 ± 3.5 | Inhibition ratio [4]: 64.4 ± 14.2^8 | Number of blood vessel branches/main blood vessel [4]: 24.3 ± 2.7^8

Cc1nc(Nc2ccccc2C(C)C)c(C)c(C)c1O [Compound 6h, 6-((2-isopropylphenyl)amino)-2,4,5-trimethylpyridin-3-ol]
inhibition in vivo at 1.1 µM (Gallus gallus, 72 h, VEGF (50 ng/CAM) + 3.0 ng/CAM, 1.1 μM, 3 days after treatment, read-out: Inhibition ratio): 55.3 ± 20.3% | Number of blood vessel branches/main blood vessel (VEGF (50 ng/CAM) + 3.0 ng/CAM, 1.1 μM, 3 days after treatment): 28.4 ± 2.7^8

CCCCCCNc1nc(C)c(O)c(C)c1C [Compound 6b, 6-(hexylamino)-2,4,5-trimethylpyridin-3-ol]
inhibition in vivo at 1.3 µM [1]: 53.7 ± 10.3% | Number of blood vessel branches/main blood vessel [2]: 26.3 ± 2.0^8

Cc1nc(Nc2ccc(Br)cc2)c(C)c(C)c1O [Compound 6j, 6-((4-bromophenyl)amino)-2,4,5-trimethylpyridin-3-ol]
inhibition in vivo at 1 µM [5]: 61.7 ± 7.7% | Number of blood vessel branches/main blood vessel [6]: 30.7 ± 2.6^8

Cc1nc(NCCCOc2nc(C)c(O)c(C)c2C)c(C)c(C)c1O [Compound 6d-2, 6-(3-((5-hydroxy-3,4,6-trimethylpyridin-2-yl)amino)propoxy)-2,4,5-trimethylpyridin-3-ol]
inhibition in vivo at 1 µM (Gallus gallus, 72 h, VEGF (50 ng/CAM) + 3.5 ng/CAM, 1.0 μM, 3 days after treatment, read-out: Inhibition ratio): 67.3 ± 13.9% | Number of blood vessel branches/main blood vessel (VEGF (50 ng/CAM) + 3.5 ng/CAM, 1.0 μM, 3 days after treatment): 26.2 ± 4.4^8 | angiogenesis inhibiting effects: excellent angiogenesis inhibiting effects

Cc1nc(N(c2ccccc2)c2ccccc2)c(C)c(C)c1O [Compound 6l, 6-(diphenylamino)-2,4,5-trimethylpyridin-3-ol]
inhibition in vivo at 1 µM [5]: 65.4 ± 14.6% | Number of blood vessel branches/main blood vessel [6]: 26.8 ± 4.6^8 | angiogenesis inhibiting effects: excellent angiogenesis inhibiting effects

Cc1nc(N2CCN(C)CC2)c(C)c(C)c1O [Compound 6n, 2,4,5-trimethyl-6-(4-methylpiperazin-1-yl)pyridin-3-ol]
inhibition in vivo at 1 µM [7]: 24.7 ± 21.3% | Number of blood vessel branches/main blood vessel [8]: 39.8 ± 6.8^8

Cc1nc(N(C)c2ccccn2)c(C)c(C)c1O [Compound 6q, 2,4,5-trimethyl-6-(methyl(pyridin-2-yl)amino)pyridin-3-ol]
inhibition in vivo at 1 µM (Gallus gallus, 72 h, VEGF (50 ng/CAM) + 2.4 ng/CAM, 1.0 μM, 3 days after treatment, read-out: Inhibition ratio): 42.2 ± 21.7% | Number of blood vessel branches/main blood vessel (VEGF (50 ng/CAM) + 2.4 ng/CAM, 1.0 μM, 3 days after treatment): 34.2 ± 6.9^8

CNC(=O)[C@H](Cc1ccccc1)NC(=O)[C@H](CC(C)C)[C@H](CSc1cccs1)C(=O)NO [Batimastat, reference compound]
inhibition in vivo at 200 µM (Gallus gallus, 72 h, VEGF (50 ng/CAM) + 1.0 μg/CAM, 200 μM, 3 days after treatment, read-out: Inhibition ratio): 78.4 ± 7.4% | Number of blood vessel branches/main blood vessel (VEGF (50 ng/CAM) + 1.0 μg/CAM, 200 μM, 3 days after treatment): 19.9 ± 2.87^8

Cc1nc(N2CCCC2)c(C)c(C)c1O [Compound 6m, 2,4,5-trimethyl-6-(pyrrolidin-1-yl)pyridin-3-ol]
inhibition in vivo at 1 µM [7]: 60.5 ± 12.7% | Number of blood vessel branches/main blood vessel [8]: 27.6 ± 4.2^8 | angiogenesis inhibiting effects: excellent angiogenesis inhibiting effects

CN(C)c1ccc(/C=C2\C(=O)Nc3ccccc32)cc1 [SU4312, reference compound]
Inhibition ratio [9]: 74.6 ± 12.1^8 | Number of blood vessel branches/main blood vessel [9]: 24 ± 4.6^8

Cc1nc(-n2cccc2)c(C)c(C)c1O [Compound 6p, 2,4,5-trimethyl-6-(1H-pyrrol-1-yl)pyridin-3-ol]
inhibition in vivo at 1 µM [7]: 44 ± 17.2% | Number of blood vessel branches/main blood vessel [8]: 33.6 ± 5.5^8

Br.Cc1nc(Nc2ccccc2)c(C)c(C)c1O [Compound 6g-HBr, 2,4,5-trimethyl-6-(phenylamino)pyridin-3-ol hydrobromide]
inhibition in vivo at 1 µM [5]: 55 ± 10.6% | Number of blood vessel branches/main blood vessel [6]: 28.6 ± 3.9^8

Cc1nc(NCCCO)c(C)c(C)c1O [Compound 6d-1, 6-((3-hydroxypropyl)amino)-2,4,5-trimethylpyridin-3-ol]
inhibition in vivo at 1.4 µM (Gallus gallus, 72 h, VEGF (50 ng/CAM) + 3.0 ng/CAM, 1.4 μM, 3 days after treatment, read-out: Inhibition ratio): 46.3 ± 12% | Number of blood vessel branches/main blood vessel (VEGF (50 ng/CAM) + 3.0 ng/CAM, 1.4 μM, 3 days after treatment): 27.8 ± 2.3^8

Cc1nc(NC2CCCCC2)c(C)c(C)c1O [Compound 6e, 6-(cyclohexylamino)-2,4,5-trimethylpyridin-3-ol]
inhibition in vivo at 1.3 µM [1]: 36.8 ± 10.7% | Number of blood vessel branches/main blood vessel [2]: 35.3 ± 4.0^8
